Entries after “also recorded” stand apart in the source; their conditions may differ. Like-named read-outs stand apart in the source and are kept apart here.
Legend:
[1] = in mice; cited from earlier work
[2] = in vivo, iv; cited from earlier work
[3] = cited from earlier work
[4] = Metabolism by human liver S9 fraction; assay type: in vitro ADME
[5] = assay type: in vivo, mice; settings: at the termination of efficacy trials
[6] = In vivo pharmacokinetic study, single IV or IP injection to healthy mice
[7] = Metabolism by human liver microsomes; assay type: in vitro ADME
[8] = test system: mice; assay: Toxicity to mice in efficacy and PK studies; assay type: in vivo; settings: dosing regime of efficacy study (5-10 mg/kg once daily) and PK study
[9] = Solubility in aqueous buffers; assay type: physicochemical
[10] = Stability in mouse serum at 37 °C; assay type: in vitro ADME
[11] = Stability in human liver cytosolic fraction; assay type: in vitro ADME; settings: r^2 = 0.24, p = 0.10
[12] = test system: human cancer cells; settings: cited from earlier work
[13] = test system: Plasmodium yoelii; assay: In vivo efficacy in mice infected with Plasmodium yoelii, parasite load by FACS; design: species or system Swiss webster female mice
[14] = test system: P. falciparum; settings: read-out: in vitro IC50; cited from earlier work
[15] = test system: parasitemia; settings: cited from earlier work

SMILES: C[C@H]1Cc2c([nH]c3cc(Cl)c(F)cc23)[C@@]2(N1)C(=O)Nc1ccc(Cl)cc12 [NITD609, spirotetrahydro-β-carboline NITD609]
- clearance rate [1]: 9.8 mL/min/kg

SMILES: C[C@H]1[C@H](OC(=O)CCC(=O)O)O[C@@H]2O[C@@]3(C)CC[C@H]4[C@H](C)CC[C@@H]1[C@@]24OO3 [artesunate]
- half-life [2]: less than 10 min

SMILES: CCN(CC)CCCC(C)Nc1ccnc2cc(Cl)ccc12 (centres unmarked) [chloroquine]
- apparent volume of distribution [3]: 200 L/kg

SMILES: CC1=C2Cc3cc(ccc3O)C(=O)O[C@H](C(C)(C)Br)CC[C@](C)(O)[C@H](Br)CC[C@]2(C)[C@@H](Br)CC1 [compound 1, bromophycolide A]
- metabolism by human liver sub-cellular fractions ([4]; after 4 h): negligible metabolism
- half-life ([4]; human, human liver S9 fraction): 9.5 ± 0.8 h
- CLint scaled at 24 h, 10 µM ([4]; human, human liver S9 fraction, CLint, S9 fraction with UDPGA): 1.1 ± 0.1 mL/min/kg
- concentration in blood and plasma of infected mice [5]: below the limit of detection
- bioavailability ([6]; IP vs IV dosing): good bioavailability
- Cp^0 ([6]; IV, 23 mg/kg, plasma): 24000 ± 6000 ng/mL
- CLint scaled at 24 h, 10 µM ([7]; human, human liver microsomes): 1.6 ± 0.5 mL/min/kg
- stability in the presence of human microsomes ([7]; summary statement): moderately stable
- toxicity to mice [8]: lack of mouse toxicity; also recorded: non-toxic
- solubility in aqueous buffers [9]: poor solubility
- loss after incubation in mouse serum ([10]; 37 °C, 24 h (r^2 = 0.20, p=0.27)): no significant loss
- stability in mouse serum ([10]; over 24 h): stable
- stability in the presence of the human liver cytosolic fraction [11]: stable
- differential selectivity among eukaryotic cell lines [12]: 10 fold
- IC50 ([12]; human cancer cells): > 6000 nM
- parasitemia in treated mice ([13]; after the second dose, 10 mg/kg): 10.0 ± 0.5%
- final parasitemia (FACS) ([13]; dosed at 10 mg/kg, control 32 ± 2 %): 17 ± 4%

SMILES: CC[C@H](C)C(=O)O[C@@H]1[C@H]2C(C)=CC(=O)[C@@H](O)[C@]2(C)[C@H]2[C@@H](O)[C@H](O)[C@@]3(C)OC[C@@]24[C@@H]1OC(=O)[C@H](OC(=O)[C@@H](C)CC)[C@@H]34 [simalikalactone E]
- IC50 [14]: 24 to 68 nM
- reduction of parasitemia in vivo ([15]; 0.5 mg/kg IP dosing): 50%
- reduction of parasitemia in vivo ([15]; 1 mg/kg oral dosing): 50%
